What all share (experiment): biochemical
Holding throughout (type): binding

Test [1] has as its target T1, panel of 442 kinases (Homo sapiens, UniProt O00506).
T1 construct: purchased Ambit Biosciences (scanMAXX KINOMEscan)
The settings on record: kinase YSK1; for remaining activity at 1 µM: read-out: YSK1 (% of control at 1 µM).

For test [2], the target named is T2, panel of 442 kinases (Homo sapiens, UniProt P00519).
T2 construct: purchased Ambit Biosciences (scanMAXX KINOMEscan)
The settings on record: for remaining activity at 1 µM: read-out: % of control at 1 µM; for remaining activity at 10 µM: read-out: % of control at 10 µM.

Test [3] deals with T3, panel of 442 kinases (Homo sapiens, UniProt P09619).
T3 construct: purchased Ambit Biosciences (scanMAXX KINOMEscan)
Conditions: kinase PDGFRB; for remaining activity at 1 µM: read-out: % of control at 1 µM.

Test [4] concerns the target T4, panel of 442 kinases (Homo sapiens, UniProt P19525).
T4 construct: purchased Ambit Biosciences (scanMAXX KINOMEscan)
Conditions: kinase PRKR; for remaining activity at 1 µM: read-out: PRKR (% of control at 1 µM).

For test [5], the target named is T5, panel of 442 kinases (Homo sapiens, UniProt P45985).
T5 construct: purchased Ambit Biosciences (scanMAXX KINOMEscan)
T5 sequence (P45985 1-399): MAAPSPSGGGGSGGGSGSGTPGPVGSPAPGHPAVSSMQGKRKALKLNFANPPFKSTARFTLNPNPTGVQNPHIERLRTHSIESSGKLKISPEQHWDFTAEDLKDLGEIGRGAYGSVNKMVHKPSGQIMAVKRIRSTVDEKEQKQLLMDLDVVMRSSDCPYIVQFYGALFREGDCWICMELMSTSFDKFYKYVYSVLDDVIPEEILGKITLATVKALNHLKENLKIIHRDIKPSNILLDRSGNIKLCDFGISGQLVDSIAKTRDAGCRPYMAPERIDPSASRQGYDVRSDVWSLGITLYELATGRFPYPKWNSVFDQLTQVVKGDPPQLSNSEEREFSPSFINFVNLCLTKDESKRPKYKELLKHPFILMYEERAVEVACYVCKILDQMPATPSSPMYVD
The settings on record: kinase MEK4; for remaining activity at 1 µM: read-out: % of control at 1 µM.

Test [6] deals with T6, panel of 442 kinases (Homo sapiens, UniProt Q13233).
T6 construct: purchased Ambit Biosciences (scanMAXX KINOMEscan)
Conditions: kinase MAP3K1; for remaining activity at 1 µM: read-out: % of control at 1 µM.

The target of test [7] is T7, panel of 442 kinases (Homo sapiens, UniProt Q59H18).
T7 construct: purchased Ambit Biosciences (scanMAXX KINOMEscan)
T7 sequence (Q59H18 1-835): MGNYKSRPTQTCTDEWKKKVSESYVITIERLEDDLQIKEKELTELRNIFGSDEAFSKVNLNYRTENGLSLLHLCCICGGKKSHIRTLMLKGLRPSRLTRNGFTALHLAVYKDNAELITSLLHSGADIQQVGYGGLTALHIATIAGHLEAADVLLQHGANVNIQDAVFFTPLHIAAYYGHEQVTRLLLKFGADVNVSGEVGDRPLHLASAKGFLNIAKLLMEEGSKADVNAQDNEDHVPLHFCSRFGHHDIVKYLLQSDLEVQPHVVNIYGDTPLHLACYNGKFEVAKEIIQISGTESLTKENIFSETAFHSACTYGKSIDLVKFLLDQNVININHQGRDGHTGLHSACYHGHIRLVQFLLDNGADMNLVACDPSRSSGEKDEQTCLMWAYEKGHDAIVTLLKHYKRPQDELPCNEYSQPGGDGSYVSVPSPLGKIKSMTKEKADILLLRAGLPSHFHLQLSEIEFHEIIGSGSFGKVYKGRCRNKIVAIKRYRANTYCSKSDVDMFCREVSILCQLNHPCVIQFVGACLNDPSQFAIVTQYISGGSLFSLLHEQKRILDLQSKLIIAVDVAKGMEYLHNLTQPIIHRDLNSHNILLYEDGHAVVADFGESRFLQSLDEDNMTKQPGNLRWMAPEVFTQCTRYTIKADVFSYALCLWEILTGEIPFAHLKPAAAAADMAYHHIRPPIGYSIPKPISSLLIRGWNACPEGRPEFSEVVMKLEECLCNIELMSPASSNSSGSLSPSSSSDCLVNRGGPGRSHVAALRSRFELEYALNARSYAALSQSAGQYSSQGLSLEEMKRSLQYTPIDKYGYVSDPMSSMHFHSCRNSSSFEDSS
Conditions: kinase TNNI3K; for remaining activity at 1 µM: read-out: TNNI3K (% of control at 1 µM).

Test [8] has as its target T8, panel of 442 kinases (Homo sapiens, UniProt Q8IWQ3).
T8 construct: purchased Ambit Biosciences (scanMAXX KINOMEscan)
T8 sequence (Q8IWQ3 1-736): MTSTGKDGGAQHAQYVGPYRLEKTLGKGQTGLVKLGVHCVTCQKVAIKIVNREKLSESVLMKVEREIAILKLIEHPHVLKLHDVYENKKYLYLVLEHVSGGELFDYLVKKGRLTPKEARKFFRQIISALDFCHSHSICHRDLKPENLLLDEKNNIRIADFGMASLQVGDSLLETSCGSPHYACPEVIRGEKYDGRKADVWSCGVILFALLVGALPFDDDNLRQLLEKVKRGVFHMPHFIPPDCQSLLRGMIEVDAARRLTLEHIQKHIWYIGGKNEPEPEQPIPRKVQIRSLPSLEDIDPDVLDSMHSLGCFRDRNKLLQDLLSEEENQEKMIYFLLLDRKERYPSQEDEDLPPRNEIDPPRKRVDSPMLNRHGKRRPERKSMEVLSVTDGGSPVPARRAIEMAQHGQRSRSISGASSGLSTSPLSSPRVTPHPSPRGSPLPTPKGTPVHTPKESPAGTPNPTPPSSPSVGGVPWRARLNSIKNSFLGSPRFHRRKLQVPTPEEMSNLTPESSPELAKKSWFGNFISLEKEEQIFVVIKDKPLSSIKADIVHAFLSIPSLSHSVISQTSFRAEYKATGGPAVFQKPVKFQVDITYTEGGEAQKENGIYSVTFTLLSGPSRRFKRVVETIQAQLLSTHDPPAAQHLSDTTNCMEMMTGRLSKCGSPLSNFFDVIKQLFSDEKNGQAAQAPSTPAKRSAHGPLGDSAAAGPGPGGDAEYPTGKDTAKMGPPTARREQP
The settings on record: BRSK2; for remaining activity at 1 µM: read-out: % of control at 1 µM.

The mark [9] stands for this setting: 10 µM, read-out: % of control at 10 µM.

Like-named read-outs stand apart in the source and are kept apart here.

T2 sequence (P00519 whole entry): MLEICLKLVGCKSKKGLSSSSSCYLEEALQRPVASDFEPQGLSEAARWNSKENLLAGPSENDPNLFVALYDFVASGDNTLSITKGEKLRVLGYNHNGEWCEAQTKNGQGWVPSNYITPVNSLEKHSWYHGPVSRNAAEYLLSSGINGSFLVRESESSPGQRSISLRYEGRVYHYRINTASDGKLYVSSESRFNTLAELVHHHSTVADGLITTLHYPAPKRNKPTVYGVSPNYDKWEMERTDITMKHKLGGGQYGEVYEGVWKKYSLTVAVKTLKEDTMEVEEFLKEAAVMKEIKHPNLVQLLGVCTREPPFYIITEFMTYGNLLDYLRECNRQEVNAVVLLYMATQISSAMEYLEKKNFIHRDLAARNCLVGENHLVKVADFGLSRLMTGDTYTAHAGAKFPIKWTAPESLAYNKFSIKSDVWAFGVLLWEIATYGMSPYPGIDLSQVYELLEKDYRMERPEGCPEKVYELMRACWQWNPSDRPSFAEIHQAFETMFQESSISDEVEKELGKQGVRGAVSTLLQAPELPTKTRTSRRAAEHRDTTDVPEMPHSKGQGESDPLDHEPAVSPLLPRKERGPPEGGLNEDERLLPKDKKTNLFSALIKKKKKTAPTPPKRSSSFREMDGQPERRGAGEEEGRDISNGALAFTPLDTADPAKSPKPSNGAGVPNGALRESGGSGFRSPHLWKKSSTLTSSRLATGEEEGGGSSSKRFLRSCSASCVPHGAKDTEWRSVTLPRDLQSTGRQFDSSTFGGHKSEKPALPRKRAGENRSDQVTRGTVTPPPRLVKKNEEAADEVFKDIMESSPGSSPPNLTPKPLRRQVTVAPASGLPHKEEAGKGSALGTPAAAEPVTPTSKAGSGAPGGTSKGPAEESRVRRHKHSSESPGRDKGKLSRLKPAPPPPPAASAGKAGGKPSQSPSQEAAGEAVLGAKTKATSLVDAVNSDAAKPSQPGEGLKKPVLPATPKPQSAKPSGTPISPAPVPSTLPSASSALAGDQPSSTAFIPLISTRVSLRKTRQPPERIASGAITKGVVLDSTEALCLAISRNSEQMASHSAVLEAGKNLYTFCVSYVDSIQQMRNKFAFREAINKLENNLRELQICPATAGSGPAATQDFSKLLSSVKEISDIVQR
T6 sequence (Q13233 whole entry): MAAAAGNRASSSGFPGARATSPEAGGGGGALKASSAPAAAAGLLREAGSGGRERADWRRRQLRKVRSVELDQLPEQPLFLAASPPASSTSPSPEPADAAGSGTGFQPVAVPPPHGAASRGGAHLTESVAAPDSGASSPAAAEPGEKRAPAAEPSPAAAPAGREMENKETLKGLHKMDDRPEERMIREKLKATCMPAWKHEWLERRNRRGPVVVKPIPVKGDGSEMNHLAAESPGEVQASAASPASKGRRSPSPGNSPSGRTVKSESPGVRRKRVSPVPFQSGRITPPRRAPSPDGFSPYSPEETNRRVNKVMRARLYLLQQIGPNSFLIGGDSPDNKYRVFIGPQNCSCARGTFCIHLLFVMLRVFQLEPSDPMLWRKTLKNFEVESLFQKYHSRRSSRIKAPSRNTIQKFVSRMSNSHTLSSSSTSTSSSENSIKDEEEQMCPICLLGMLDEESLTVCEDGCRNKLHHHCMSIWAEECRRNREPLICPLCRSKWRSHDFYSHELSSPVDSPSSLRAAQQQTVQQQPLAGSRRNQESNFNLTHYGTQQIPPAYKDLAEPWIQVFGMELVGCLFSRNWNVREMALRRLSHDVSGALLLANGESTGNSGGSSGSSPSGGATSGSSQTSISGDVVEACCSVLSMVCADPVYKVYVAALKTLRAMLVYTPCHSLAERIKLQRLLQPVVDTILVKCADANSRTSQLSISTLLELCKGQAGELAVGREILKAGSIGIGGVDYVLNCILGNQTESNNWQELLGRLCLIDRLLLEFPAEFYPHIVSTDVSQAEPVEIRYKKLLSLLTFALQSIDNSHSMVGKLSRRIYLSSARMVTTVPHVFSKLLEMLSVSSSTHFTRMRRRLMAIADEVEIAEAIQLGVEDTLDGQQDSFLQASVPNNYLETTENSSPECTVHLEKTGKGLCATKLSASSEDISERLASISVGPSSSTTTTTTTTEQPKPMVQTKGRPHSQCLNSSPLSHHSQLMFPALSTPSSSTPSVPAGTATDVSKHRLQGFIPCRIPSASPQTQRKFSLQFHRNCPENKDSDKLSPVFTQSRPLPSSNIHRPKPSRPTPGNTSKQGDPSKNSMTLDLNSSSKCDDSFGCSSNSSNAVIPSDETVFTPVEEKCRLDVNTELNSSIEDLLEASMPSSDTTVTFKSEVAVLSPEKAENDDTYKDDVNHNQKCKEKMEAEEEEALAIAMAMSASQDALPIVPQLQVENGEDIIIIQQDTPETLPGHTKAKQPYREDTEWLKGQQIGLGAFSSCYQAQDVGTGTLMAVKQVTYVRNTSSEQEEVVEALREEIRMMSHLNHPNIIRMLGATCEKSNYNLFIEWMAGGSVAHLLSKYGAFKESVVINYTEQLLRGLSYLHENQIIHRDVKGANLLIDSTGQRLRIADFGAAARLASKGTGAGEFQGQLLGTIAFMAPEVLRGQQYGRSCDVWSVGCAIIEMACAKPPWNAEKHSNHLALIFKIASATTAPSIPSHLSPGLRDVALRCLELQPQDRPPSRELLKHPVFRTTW
T1 sequence (O00506 whole entry): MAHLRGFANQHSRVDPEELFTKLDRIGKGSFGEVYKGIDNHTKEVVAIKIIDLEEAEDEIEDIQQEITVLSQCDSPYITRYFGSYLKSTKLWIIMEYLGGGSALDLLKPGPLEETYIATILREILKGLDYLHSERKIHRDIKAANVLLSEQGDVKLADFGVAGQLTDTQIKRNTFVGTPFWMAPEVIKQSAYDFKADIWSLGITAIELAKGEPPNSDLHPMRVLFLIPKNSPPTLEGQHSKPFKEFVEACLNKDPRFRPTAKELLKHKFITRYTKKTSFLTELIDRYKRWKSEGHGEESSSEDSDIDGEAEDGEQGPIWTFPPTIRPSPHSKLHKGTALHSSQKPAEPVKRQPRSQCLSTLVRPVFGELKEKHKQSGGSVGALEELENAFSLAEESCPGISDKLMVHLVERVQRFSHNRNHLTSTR
T3 sequence (P09619 33-1106): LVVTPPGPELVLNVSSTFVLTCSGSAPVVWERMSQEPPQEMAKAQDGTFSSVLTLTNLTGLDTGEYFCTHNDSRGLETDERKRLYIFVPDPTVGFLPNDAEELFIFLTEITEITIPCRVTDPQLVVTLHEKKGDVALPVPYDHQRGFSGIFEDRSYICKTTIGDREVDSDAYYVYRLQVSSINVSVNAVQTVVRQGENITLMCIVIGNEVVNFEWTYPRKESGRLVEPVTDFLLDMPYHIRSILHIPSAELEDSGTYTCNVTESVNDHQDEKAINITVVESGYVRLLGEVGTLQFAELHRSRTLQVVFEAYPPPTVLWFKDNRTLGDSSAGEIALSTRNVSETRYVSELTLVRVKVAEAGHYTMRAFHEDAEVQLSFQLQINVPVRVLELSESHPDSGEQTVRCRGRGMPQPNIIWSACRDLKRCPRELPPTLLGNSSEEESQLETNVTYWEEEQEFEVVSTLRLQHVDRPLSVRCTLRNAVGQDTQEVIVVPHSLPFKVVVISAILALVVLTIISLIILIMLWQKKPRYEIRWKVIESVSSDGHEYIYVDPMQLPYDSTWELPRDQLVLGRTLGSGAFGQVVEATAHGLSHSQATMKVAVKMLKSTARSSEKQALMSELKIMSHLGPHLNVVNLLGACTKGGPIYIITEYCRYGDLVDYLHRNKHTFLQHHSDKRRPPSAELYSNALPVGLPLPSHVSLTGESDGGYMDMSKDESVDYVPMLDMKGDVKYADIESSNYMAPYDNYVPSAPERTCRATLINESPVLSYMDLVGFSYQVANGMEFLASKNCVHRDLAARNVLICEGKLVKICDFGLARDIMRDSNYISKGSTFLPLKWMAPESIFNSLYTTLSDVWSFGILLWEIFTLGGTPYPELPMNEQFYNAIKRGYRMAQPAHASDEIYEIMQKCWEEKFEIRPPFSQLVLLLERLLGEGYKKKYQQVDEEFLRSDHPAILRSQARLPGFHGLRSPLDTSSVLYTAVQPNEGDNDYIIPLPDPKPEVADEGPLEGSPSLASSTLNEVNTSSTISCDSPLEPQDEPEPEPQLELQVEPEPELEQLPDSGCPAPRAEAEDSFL
T4 sequence (P19525 whole entry): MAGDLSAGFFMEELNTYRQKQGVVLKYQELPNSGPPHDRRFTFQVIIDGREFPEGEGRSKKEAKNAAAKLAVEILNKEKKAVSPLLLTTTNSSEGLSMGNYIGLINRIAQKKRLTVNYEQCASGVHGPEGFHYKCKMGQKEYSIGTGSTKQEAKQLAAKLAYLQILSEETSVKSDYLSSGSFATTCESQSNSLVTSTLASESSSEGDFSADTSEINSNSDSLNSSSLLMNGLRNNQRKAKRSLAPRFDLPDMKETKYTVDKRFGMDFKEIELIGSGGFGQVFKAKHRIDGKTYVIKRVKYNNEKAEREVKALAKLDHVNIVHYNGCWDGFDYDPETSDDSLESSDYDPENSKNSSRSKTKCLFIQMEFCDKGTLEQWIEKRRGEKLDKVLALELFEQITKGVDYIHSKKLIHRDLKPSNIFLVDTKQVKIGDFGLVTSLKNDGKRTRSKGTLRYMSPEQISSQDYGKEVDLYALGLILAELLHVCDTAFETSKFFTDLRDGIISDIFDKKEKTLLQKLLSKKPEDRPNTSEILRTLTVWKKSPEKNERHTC

For `Nc1cc(C(F)(F)F)c(-c2cc(N3CCOCC3)nc(N3CCOCC3)n2)cn1` [Buparlisib], the remaining activity at 1 µM was 100% on panel of 442 kinases [1]; 100% at panel of 442 kinases [2] (ABL1-nonphosphorylated); 86% on panel of 442 kinases [2] (ABL1-phosphorylated); 100% at panel of 442 kinases [3]; 88% on panel of 442 kinases [4]; 100% on panel of 442 kinases [5]. The remaining activity at 1 µM at panel of 442 kinases [6], on panel of 442 kinases [7] and on panel of 442 kinases [8] was 100% throughout. Besides, the remaining activity at 10 µM is 100% at panel of 442 kinases [1] (10 µM, read-out: YSK1 (% of control at 10 µM)); 100% on panel of 442 kinases [2] (ABL1-nonphosphorylated); 100% on panel of 442 kinases [2] (ABL1-phosphorylated); 97% on panel of 442 kinases [3] (setting [9]); 100% on panel of 442 kinases [4] (10 µM, read-out: PRKR (% of control at 10 µM)); 100% on panel of 442 kinases [5] (setting [9]). In addition, the remaining activity at 10 µM turned out to be 100% at panel of 442 kinases [6] (setting [9]); 100% on panel of 442 kinases [7] (10 µM, read-out: TNNI3K (% of control at 10 µM)); 100% on panel of 442 kinases [8] (setting [9]).
Take `Cn1c(=O)n(-c2ccc(C(C)(C)C#N)cc2)c2c3cc(-c4cnc5ccccc5c4)ccc3ncc21` [Dactolisib, 2-methyl-2-[4-(3-methyl-2-oxo-8-quinolin-3-yl-2,3-dihydroimidazo[4,5-c]quinolin-1-yl)-phenyl] propionitrile]: the remaining activity at 1 µM turned out to be 100% on panel of 442 kinases [1]; 100% at panel of 442 kinases [2] (ABL1-nonphosphorylated); 81% on panel of 442 kinases [2] (ABL1-phosphorylated); 95% at panel of 442 kinases [4]; 83% on panel of 442 kinases [5]; 100% on panel of 442 kinases [6]. In addition, the remaining activity at 1 µM on panel of 442 kinases [7] was 76%; on panel of 442 kinases [8], 91%.
With `FC(F)c1nc2ccccc2n1-c1nc(N2CCOCC2)nc(N2CCOCC2)n1` [ZSTK474, 2-(difluoromethyl)-1-[4,6-di(4-morpholinyl)-1,3,5-triazin-2-yl]-1H-benzimidazole], the remaining activity at 1 µM on panel of 442 kinases [1] came to 83%; on panel of 442 kinases [2] (ABL1-nonphosphorylated), 100%; at panel of 442 kinases [2] (ABL1-phosphorylated) it was 100%; at panel of 442 kinases [3], 100%; at panel of 442 kinases [4], 93%; at panel of 442 kinases [5], 63%. Moreover, the remaining activity at 1 µM on panel of 442 kinases [6] came to 100%; at panel of 442 kinases [7], 95%; on panel of 442 kinases [8], 100%.
As to `COc1ncc(-c2ccc3nccc(-c4ccnnc4)c3c2)cc1NS(=O)(=O)c1ccc(F)cc1F` [Omipalisib], the remaining activity at 1 µM on panel of 442 kinases [1] came out at 91%; at panel of 442 kinases [2] (ABL1-nonphosphorylated), 100%; on panel of 442 kinases [2] (ABL1-phosphorylated) it was 98%; at panel of 442 kinases [3] it was 96%; on panel of 442 kinases [4] it was 84%; on panel of 442 kinases [5] it was 48%. Moreover, the remaining activity at 1 µM on panel of 442 kinases [6] worked out at 100%; on panel of 442 kinases [7] it was 100%; on panel of 442 kinases [8], 95%.

The values above are taken from PMC5564600 (Oncotarget, 2017).
